Converted amounts (≈) assume the structure as drawn. Like-named read-outs stand apart in the source and are kept apart here.
Tests used:
[1] = test system: MTB H37Rv ATCC 27294; experiment: MIC, microplate Alamar Blue assay (MABA); format: cell-based, Mycobacterium tuberculosis; settings: for MIC90 / MIC: MTB H37Rv ATCC 27294, microplate Alamar Blue assay, lowest concentration giving ≥90% reduction in fluorescence; for MIC: read-out: MIC90 MABA
[2] = test system: DPX2 cells
[3] = test system: VERO cells (ATCC CRL-81); experiment: Vero cell toxicity; format: cell-based; settings: 72 hours exposure
Procedure: Cytotoxicity for a mammalian cell line was determined by exposing VERO cells (ATCC CRL-81) to serial dilutions of test compounds for 72 hours, followed by addition of resazurin and measurement of fluorescence after 4 hours incubation (Choules, et al., Antimnicrob. Agents Chemother. 2019, 63, e02204-02218).

| SMILES | MIC90 MABA Rel to RMP [1] | MIC90 ([1]; Mycobacterium tuberculosis) [µM] | DPX2 Viability @ 6.25 μM ([2]; 24 h) [%] | DPX2 Viability @ 25 μM ([2]; human) [%] | IC50 ([3]; Chlorocebus sabaeus, Vero) [µM] | MIC ([1]; Mycobacterium tuberculosis) [µM] | MIC90 [1] [µM] | IC50 [3] [µM] | DPX2 Viability @ 6.25 μM ([2]; human, 24 h) [%] | DPX2 Viability @ 25 μM ([2]; human, 24 h, 25 μM) [%] |
| --- | --- | --- | --- | --- | --- | --- | --- | --- | --- | --- |
| CO[C@H]1/C=C/O[C@@]2(C)Oc3c(C)c(O)c4c(=O)c(c5oc6cccc(OCc7ccc(CN8CCOCC8)cc7)c6nc-5c4c3C2=O)NC(=O)/C(C)=C\C=C\[C@H](C)[C@H](O)[C@@H](C)[C@@H](O)[C@@H](C)[C@H](OC(C)=O)[C@@H]1C [Compound 16d, (7S,9E,11S,12R,13S,14R,15R,16R,17S,18S,19E,21Z)-2,15,17-Trihydroxy-11-methoxy-3,7,12,14,16,18,22-heptamethyl-32-({4-[(morpholin-4-yl)methyl]phenyl}methoxy)-6,23,37-trioxo-8,27,38-trioxa-24,34-diazahexacyclo[23.11.1.1^4,7.0^5,36.0^26,35.0^28,33]octatriaconta-1(36)2,4,9,19,21,25,28,30,32,34-undecaen-13-yl acetate] | 0.07 | 0.0037 | 79 | 59 | > 10 | – | – | – | – | – |
| CO[C@H]1/C=C/O[C@@]2(C)Oc3c(C)c(O)c4c(=O)c(c5oc6cccc(OCc7ccc(CN8CCN(C)CC8)cc7)c6nc-5c4c3C2=O)NC(=O)/C(C)=C\C=C\[C@H](C)[C@H](O)[C@@H](C)[C@@H](O)[C@@H](C)[C@H](OC(C)=O)[C@@H]1C [Compound 16e, (7S,9E,11S,12R,13S,14R,15R,16R,17S,18S,19E,21Z)-2,15,17-trihydroxy-11-methoxy-3,7,12,14,16,18,22-heptamethyl-32-({4-[(4-methylpiperazin-1-yl)methyl]phenyl}methoxy)-6,23,37-trioxo-8,27,38-trioxa-24,34-diazahexacyclo[23.11.1.1^4,7.0^5,36.0^26,35.0^28,33]octatriaconta-1,3,5(36)9,19,21,25,28,30,32,34-undecaen-13-yl acetate] | 0.16 | 0.0064 | 63 | 41 | > 10 | – | – | – | – | – |
| CO[C@H]1/C=C/O[C@@]2(C)Oc3c(C)c(O)c4c(=O)c(c5oc6cc(N7CCN(C(=O)C(C)(C)C)CC7)cc(OCc7ccc(CN8CCOCC8)cc7)c6nc-5c4c3C2=O)NC(=O)/C(C)=C\C=C\[C@H](C)[C@H](O)[C@@H](C)[C@@H](O)[C@@H](C)[C@H](OC(C)=O)[C@@H]1C [Compound 17f, (7S,9E,11S,12R,13S,14R,15R,16R,17S,18S,19E,21Z)-30-[4-(2,2-Dimethylpropanoyl)-piperazin-1-yl]-2,15,17-trihydroxy-11-methoxy-3,7,12,14,16,18,22-heptamethyl-32-({4-[(morpholin-4-yl)methyl]phenyl}methoxy)-6,23,37-trioxo-8,27,38-trioxa-24,34-diazahexacyclo[23.11.1.1^4,7.0^5,36.0^26,35.0^28,33]octatriaconta-1(36)2,4,9,19,21,25,28,30,32,34-undecaen-13-yl acetate] | 1.0 | – | 85 | 71 | > 10 | 0.027 | – | – | – | – |
| CCC(=O)N1CCN(c2cc(OCc3ccc(CN4CCOCC4)cc3)c3nc4c5c6c7c(C)c(O)c5c(=O)c(c-4oc3c2)NC(=O)/C(C)=C\C=C\[C@H](C)[C@H](O)[C@@H](C)[C@@H](O)[C@@H](C)[C@H](OC(C)=O)[C@H](C)[C@@H](OC)/C=C/O[C@@](C)(O7)C6=O)CC1 [Compound 17g, (7S,9E,11S,12R,13S,14R,15R,16R,17S,18S,19E,21Z)-2,15,17-Trihydroxy-11-methoxy-3,7,12,14,16,18,22-heptamethyl-32-({4-[(morpholin-4-yl)methyl]phenyl}methoxy)-6,23,37-trioxo-30-(4-propanoylpiperazin-1-yl)-8,27,38-trioxa-24,34-diazahexacyclo-[23.11.1.1^4,7.0^5,36.0^26,35.0^28,33]octatriaconta-1(36)2,4,9,19,21,25,28,30,32,34-undecaen-13-yl acetate] | 0.4 | 0.012 | 117 | 56 | > 10 | – | – | – | – | – |
| CO[C@H]1/C=C/O[C@@]2(C)Oc3c(C)c(O)c4c(=O)c(c5oc6cc(N7CCN(C8CCN(C)CC8)CC7)cc(OCc7ccc(CN8CCOCC8)cc7)c6nc-5c4c3C2=O)NC(=O)/C(C)=C\C=C\[C@H](C)[C@H](O)[C@@H](C)[C@@H](O)[C@@H](C)[C@H](OC(C)=O)[C@@H]1C [Compound 17h, (7S,9E,11S,12R,13S,14R,15R,16R,17S,18S,19E,21Z)-2,15,17-trihydroxy-11-methoxy-3,7,12,14,16,18,22-heptamethyl-30-[4-(1-methylpiperidin-4-yl)piperazin-1-yl]-32-{[4-(morpholin-4-ylmethyl)phenyl]methoxy}-6,23,37-trioxo-8,27,38-trioxa-24,34-diazahexacyclo-[23.11.1.1^4,7.0^5,36.0^26,35.0^28,33]octatriaconta-1,3,5(36)9,19,21,25,28,30,32,34-undecaen-13-yl acetate] | 1.3 | 0.035 | 94 | 83 | > 10 | – | – | – | – | – |
| CO[C@H]1/C=C/O[C@@]2(C)Oc3c(C)c(O)c4c(=O)c(c5oc6cc(N7CCN(CC(=O)O)CC7)cc(OCc7ccc(CN8CCOCC8)cc7)c6nc-5c4c3C2=O)NC(=O)/C(C)=C\C=C\[C@H](C)[C@H](O)[C@@H](C)[C@@H](O)[C@@H](C)[C@H](OC(C)=O)[C@@H]1C [Compound 17i] | 1.0 | – | 106 | 100 | > 10 | 0.026 (≈ 0.0294 µg/mL) | – | – | – | – |
| CO[C@H]1/C=C/O[C@@]2(C)Oc3c(C)c(O)c4c(=O)c(c5oc6cc(N7CCS(=O)(=O)CC7)cc(OCc7ccc(CN8CCOCC8)cc7)c6nc-5c4c3C2=O)NC(=O)/C(C)=C\C=C\[C@H](C)[C@H](O)[C@@H](C)[C@@H](O)[C@@H](C)[C@H](OC(C)=O)[C@@H]1C [Compound 17j, (7S,9E,11S,12R,13S,14R,15R,16R,17S,18S,19E,21Z)-30-(1,1-dioxothiomorpholin-4-yl)-2,15,17-trihydroxy-11-methoxy-3,7,12,14,16,18,22-heptamethyl-32-([4-(morpholin-4-ylmethyl)phenyl]methoxy)-6,23,37-trioxo-8,27,38-trioxa-24,34-diazahexacyclo-[23.11.1.1^4,7.0^5,36.0^26,35.0^28,33]octatriaconta-1,3,5(36)9,19,21,25,28,30,32,34-undecaen-13-yl acetate] | – | – | 2 | 126 | > 10 | > 0.01 | – | – | – | – |
| CO[C@H]1/C=C/O[C@@]2(C)Oc3c(C)c(O)c4c(=O)c(c5oc6cc(N7CCN(CCCCCCO[C@@H]8COc9nc([N+](=O)[O-])cn9C8)CC7)cc(C)c6nc-5c4c3C2=O)NC(=O)/C(C)=C\C=C\[C@H](C)[C@H](O)[C@@H](C)[C@@H](O)[C@@H](C)[C@H](OC(C)=O)[C@@H]1C [Compound 29e, (7S,9E,11S,12R,13S,14R,15R,16R,17S,18S,19E,21Z)-2,15,17-Trihydroxy-11-methoxy-3,7,12,14,16,18,22,32-octamethyl-30-[4-(6-{[(6S)-2-nitro-5H,6H,7H-imidazo[2,1-b][1,3]oxazin-6-yl]oxy}hexyl)piperazin-1-yl]-6,23,37-trioxo-8,27,38-trioxa-24,34-diazahexacyclo[23.11.1.1^4,7.0^5,36.0^26,35.0^28,33]octatriaconta-1(36)2,4,9,19,21,25,28,30,32,34-undecaen-13-yl acetate] | 0.07 | 0.002 | 112 | 99 | – | – | – | – | – | – |
| CO[C@H]1/C=C/O[C@@]2(C)Oc3c(C)c(O)c4c(=O)c(c5oc6cc(C=O)cc(N7CCN(C)CC7)c6nc-5c4c3C2=O)NC(=O)/C(C)=C\C=C\[C@H](C)[C@H](O)[C@@H](C)[C@@H](O)[C@@H](C)[C@H](OC(C)=O)[C@@H]1C [Compound 30b, (7S,9E,11S,12R,13S,14R,15R,16R,17S,18S,19E,21Z)-30-Formyl-2,15,17-trihydroxy-11-methoxy-3,7,12,14,16,18,22-heptamethyl-32-(4-methylpiperazin-1-yl)-6,23,37-trioxo-8,27,38-trioxa-24,34-diazahexacyclo[23.11.1.1^4,7.0^5,36.0^26,35.0^28,33]octatriaconta-1(36)2,4,9,19,21,25,28,30,32,34-undecaen-13-yl acetate] | 1.37 | – | – | – | – | – | 0.037 | > 8 | – | – |
| CO[C@H]1/C=C/O[C@@]2(C)Oc3c(C)c(O)c4c(=O)c(c5oc6cc(C=O)cc(N7CCN(CC(C)C)CC7)c6nc-5c4c3C2=O)NC(=O)/C(C)=C\C=C\[C@H](C)[C@H](O)[C@@H](C)[C@@H](O)[C@@H](C)[C@H](OC(C)=O)[C@@H]1C [Compound 30d, (7S,9E,11S,12R,13S,14R,15R,16R,17S,1S,19E,21Z)-30-Formyl-2,15,17-trihydroxy-11-methoxy-3,7,12,14,16,18,22-heptamethyl-32-[4-(2-methylpropyl)piperazin-1-yl]-6,23,37-trioxo-8,27,38-trioxa-24,34-diazahexacyclo[23.11.1.1^4,7.0^5,36.0^26,35.0^28,33]octatriaconta-1(36)2,4,9,19,21,25,28,30,32,34-undecaen-13-yl acetate] | <0.6 | – | – | – | – | – | <0.016 | > 8 | – | – |
| CO[C@H]1/C=C/O[C@@]2(C)Oc3c(C)c(O)c4c(c3C2=O)C2=NC3(CCN(CC(C)C)CC3)NC2=C(NC(=O)/C(C)=C\C=C\[C@H](C)[C@H](O)[C@@H](C)[C@@H](O)[C@@H](C)[C@H](OC(C)=O)[C@@H]1C)C4=O [RFB, rifabutin, reference compound] | 0.09 | 0.0024 (≈ 0.00203 µg/mL) | – | – | – | – | – | – | 117 | 107 |

— patent US20250188092A1, “RIFAMYCIN ANALOGS” (THE REGENTS OF THE UNIVERSITY OF MICHIGAN, priority 2021, published 2025)
